Reference: patent US20170280722A1, “COMPOSITIONS AND METHODS FOR CONTROL OF SAND FLIES AND OTHER BLOOD SUCKING INSECTS” (GENESIS LABORATORIES, INC., priority 2010, published 2017)
“And” between values parts separate entries of the source, which are not always exact repeats. Equal entries are not always repeated.

Tests used:
[1] = system: P. argentipes first instar larvae; assay: Larval bioassay with feces of fipronil treated B. bengalensis; assay type: in vivo; settings: for Mean ± SEM survival (days) of P. argentipes larvae during exposure to treated feces D-1 / Mean ± SEM survival (days) of P. argentipes larvae during exposure to treated feces D-5 / Mean ± SEM survival (days) of P. argentipes larvae during exposure to treated feces D-10 / Mean ± SEM survival (days) of P. argentipes larvae during exposure to treated feces D-20: B. bengalensis; for Mean ± SEM survival (days) of P. argentipes larvae during exposure to treated feces D-1: feces 1 day post-treatment; for Mean ± SEM survival (days) of P. argentipes larvae during exposure to treated feces D-5: feces 5 days post-treatment; for Mean ± SEM survival (days) of P. argentipes larvae during exposure to treated feces D-10: feces 10 days post-treatment; for Mean ± SEM survival (days) of P. argentipes larvae during exposure to treated feces D-20: feces 20 days post-treatment
Experimental: The B. bengalensis fipronil study was conducted in two portions. In the first of the two segments, three randomly selected B. bengalensis were offered a fipronil (250 ppm) treated diet at 25 g daily. One rat served as control and was fed an untreated diet. In the second portion of the study, the remaining animals were randomly divided into two groups of two. Two individuals in the first group were offered 25 g of 100 ppm fipronil-treated feed each and two rats in the second group were each offered 25 g of 50 ppm fipronil-treated diet. One rat served as control and was fed an untreated diet.
Test animals were provided treated feed for two consecutive days. Diets were prepared by utilizing locally available poultry feed treated with technical grade fipronil to predetermined concentrations. Consumption was calculated daily, feed refilled to a predetermined level of 25 g, and feces cleared. At the end of the second day, treated feed was cleared, final consumption weighed, and feed replaced with untreated locally available poultry feed. Feces were collected, noted as day-1 post-treatment and properly stored for use in assays. Observation of test animals continued for twenty days post-treatment, with additional collection of feces for testing conducted 5, 10, and 20 days post-treatment. On days when fecal collection occurred, all newspaper/bedding was replaced at 0800 hours and feces collected at the end of the day for preservation. Collected feces were dried overnight at approximately 40° C., ground into a fine powder with a pestle and mortar and frozen at −20° C. until larval bioassays were initiated.
(§1) Larval bioassay jars were prepared using 48 mm, 100 g round Dibbi jars (Pearlpet, Pearl Polymers LTD., New Delhi, India). Jars were prepared by burning three small holes into the bottom of the container with a soldering iron. A thin layer (approximately 5 mm) of plaster of Paris was cast on the bottom and wetted to ensure humidity and softening of the test diet. To simplify mortality counts, the plaster was quartered, and each quadrant numbered one through four, using an ultra fine black marker. The lids of the jars were punctured with 15-20 small holes using a heated 24-gauge hypodermic needle.
(§2) Each bioassay jar was loaded with ten one to two day old first instar P. argentipes larvae. Approximately 5 mg treated feces were sprinkled evenly over the plaster. Larval bioassay samples were maintained in a controlled environment at approximately 24° C. with relative humidity maintained at approximately 80% through daily moistening of paper towels underneath the jars. Any observed mold or mites were removed during each day's observation. Each bioassay group included one control jar with larvae provided standard larval food consisting of rabbit feed, rabbit pellets, and dried chicken blood which were mixed, dried, composted, and crushed. Mortality counts of larvae were conducted every 24 hours post-exposure until 100% mortality or pupation was observed. Larvae were considered dead if no physical response was observed within 15 seconds of light stimulation with a blunt probe.

[2] = system: larval P. argentipes sand flies; assay: Larval bioassay with feces of cattle given a single oral dose of fipronil; assay type: in vivo; settings: for Days after dosing to attain 100% mortality in sand flies: cattle
Experimental: The test substance was given to the cattle orally as a single application. The oral treatment was by hand. Because the oral treatment was delivered in capsule form the dosage was very precise.
The four dose levels of fipronil for the treatment groups used in this study were as follows: 0.5, 1.0, 2.0 and 4.0 mg/kg. These were weighed with an analytical balance to the nearest 0.01 g and presented in gelatin capsules.
Collection of feces was performed at pre-dosing (day 0) and days 1, 3, 5, 7, 14, 21, and 28 following administration. Feces were sampled using arm length veterinarian sterile glove and about 50 g of feces was placed into individually label plastic jars. Samples were stored in a −20° C. freezer.
as §1, §2

## N#Cc1nn(-c2c(Cl)cc(C(F)(F)F)cc2Cl)c(N)c1[S+]([O-])C(F)(F)F (stereo not drawn) [fipronil]
[1]; 50 ppm
  Mean ± SEM survival (days) of P. argentipes larvae during exposure to treated feces D-1: 2.66 ± 0.18 days
  Mean ± SEM survival (days) of P. argentipes larvae during exposure to treated feces D-5: 4.03 ± 0.27 days
  Mean ± SEM survival (days) of P. argentipes larvae during exposure to treated feces D-10: 4.06 ± 0.29 days
  Mean ± SEM survival (days) of P. argentipes larvae during exposure to treated feces D-20: 6.36 ± 0.36 days
[1]; 100 ppm
  Mean ± SEM survival (days) of P. argentipes larvae during exposure to treated feces D-1: 2.23 ± 0.11 days
  Mean ± SEM survival (days) of P. argentipes larvae during exposure to treated feces D-5: 3.73 ± 0.23 days
  Mean ± SEM survival (days) of P. argentipes larvae during exposure to treated feces D-10: 3.70 ± 0.16 days
  Mean ± SEM survival (days) of P. argentipes larvae during exposure to treated feces D-20: 3.82 ± 0.21 days
[1]; 250 ppm
  Mean ± SEM survival (days) of P. argentipes larvae during exposure to treated feces D-1: 3.37 ± 0.20 days
  Mean ± SEM survival (days) of P. argentipes larvae during exposure to treated feces D-5: 5.13 ± 0.27 days
  Mean ± SEM survival (days) of P. argentipes larvae during exposure to treated feces D-10: 2.28 ± 0.10 days
  Mean ± SEM survival (days) of P. argentipes larvae during exposure to treated feces D-20: 2.20 ± 0.10 days
[1]; feces 5 days after treatment, 50 ppm
  Days of exposure to achieve 100% mortality: 7 days
[1]; feces 5 days after treatment, 50 ppm, after 2 days of exposure
  Larval mortality: 23%
[1]; feces 5 days after treatment, 100 ppm
  Days of exposure to achieve 100% mortality: 7 days
[1]; feces 5 days after treatment, 100 ppm, after 2 days of exposure
  Larval mortality: 22%
[1]; feces 5 days after treatment, 250 ppm
  Days of exposure to achieve 100% mortality: 8 days
[1]; feces 5 days after treatment, 250 ppm, after 3 days of exposure
  Larval mortality: 23%
[1]; feces 10 days after treatment, 50 ppm
  Days of exposure to achieve 100% mortality: 9 days
[1]; feces 10 days after treatment, 50 ppm, after 2 days of exposure
  Larval mortality: 16%
[1]; feces 10 days after treatment, 50 ppm, after 6 days of exposure
  Larval mortality: 95%
[1]; feces 10 days after treatment, 100 ppm
  Days of exposure to achieve 100% mortality: 5 days
[1]; feces 10 days after treatment, 100 ppm, after 2 days of exposure
  Larval mortality: 6%
[1]; feces 10 days after treatment, 250 ppm
  Days of exposure to achieve 100% mortality: 4 days
[1]; feces 10 days after treatment, 250 ppm, after 2 days of exposure
  Larval mortality: 78%
[1]; feces 20 days after treatment, 50 ppm
  Days of exposure to achieve 100% mortality: 10 days
[1]; feces 20 days after treatment, 100 ppm
  Days of exposure to achieve 100% mortality: 6 days
[1]; feces 20 days after treatment, 100 ppm (so in the source), after 3 days of exposure
  Larval mortality: 7%
[1]; feces 20 days after treatment, 100 ppm, after 2 days of exposure
  Larval mortality: 14%
[1]; feces 20 days after treatment, 250 ppm
  Days of exposure to achieve 100% mortality: 4 days
[1]; feces 20 days after treatment, 250 ppm, after 2 days of exposure
  Larval mortality: 85%
[1]; feces collected 20 days after the rodents were treated
  Knockdown of larvae: Quick knockdown
[1]; feces day 1 post-treatment, 50 ppm
  Days of exposure to achieve 100% mortality: 5 days
[1]; feces day 1 post-treatment, 50 ppm, after 1 day of exposure
  Larval mortality: 4%
[1]; feces day 1 post-treatment, 100 ppm
  Days of exposure to achieve 100% mortality: 4 days
[1]; feces day 1 post-treatment, 100 ppm, after 1 day of exposure
  Larval mortality: 8%
[1]; feces day 1 post-treatment, 250 ppm
  Days of exposure to achieve 100% mortality: 6 days
[1]; feces day 1 post-treatment, 250 ppm, after 2 days of exposure
  Larval mortality: 18%
[2]; all dose levels (0.5-4.0 mg/kg), over the 21-day study
  Larval mortality: 100%
[2]; cattle feces of day 3 post-treatment, dose level not stated
  Day by which 100% sand fly mortality was attained: ≤ 4 days
[2]; single oral dose 0.5 mg/kg, feces of day 1 after administration
  Days after dosing to attain 100% mortality in sand flies: 5.5 days
[2]; single oral dose 0.5 mg/kg, feces of day 3 after administration
  Days after dosing to attain 100% mortality in sand flies: 6.0 days
[2]; single oral dose 0.5 mg/kg, feces of day 5 after administration
  Days after dosing to attain 100% mortality in sand flies: 9.5 days
[2]; single oral dose 0.5 mg/kg, feces of day 14 after administration
  Days after dosing to attain 100% mortality in sand flies: 17 days
[2]; single oral dose 0.5 mg/kg, feces of day 21 after administration
  Days after dosing to attain 100% mortality in sand flies: 15.5 days
[2]; single oral dose 1.0 mg/kg, feces of day 1 after administration
  Days after dosing to attain 100% mortality in sand flies: 4.5 days
[2]; single oral dose 1.0 mg/kg, feces of day 3 after administration
  Days after dosing to attain 100% mortality in sand flies: 4.0 days
[2]; single oral dose 1.0 mg/kg, feces of day 5 after administration
  Days after dosing to attain 100% mortality in sand flies: 9.0 days
[2]; single oral dose 1.0 mg/kg, feces of day 14 after administration
  Days after dosing to attain 100% mortality in sand flies: 20 days
[2]; single oral dose 1.0 mg/kg, feces of day 21 after administration
  Days after dosing to attain 100% mortality in sand flies: 16.5 days
[2]; single oral dose 2.0 mg/kg, feces of day 1 after administration
  Days after dosing to attain 100% mortality in sand flies: 4.0 days
[2]; single oral dose 2.0 mg/kg, feces of day 3 after administration
  Days after dosing to attain 100% mortality in sand flies: 4.0 days
[2]; single oral dose 2.0 mg/kg, feces of day 5 after administration
  Days after dosing to attain 100% mortality in sand flies: 7.0 days
[2]; single oral dose 2.0 mg/kg, feces of day 14 after administration
  Days after dosing to attain 100% mortality in sand flies: 10 days
[2]; single oral dose 2.0 mg/kg, feces of day 21 after administration, 2 mg/kg
  Days after dosing to attain 100% mortality in sand flies: 12 days and 12.0 days
[2]; single oral dose 4.0 mg/kg, feces of day 1 after administration
  Days after dosing to attain 100% mortality in sand flies: 4.0 days
[2]; single oral dose 4.0 mg/kg, feces of day 3 after administration
  Days after dosing to attain 100% mortality in sand flies: 4.0 days
[2]; single oral dose 4.0 mg/kg, feces of day 5 after administration
  Days after dosing to attain 100% mortality in sand flies: 6.5 days
[2]; single oral dose 4.0 mg/kg, feces of day 14 after administration
  Days after dosing to attain 100% mortality in sand flies: 11 days
[2]; single oral dose 4.0 mg/kg, feces of day 21 after administration, 4 mg/kg
  Days after dosing to attain 100% mortality in sand flies: 10 days and 10.0 days
